In patent publication US20240166652A1, “MODULATORS OF THE INTEGRATED STRESS PATHWAY” (Calico Life Sciences LLC, priority 2017, published 2024) one finds EC50 data, which are given here for 30 compounds.

The test system of the assay is ATF4 luciferase reporter in HEK293T cells. The assay is described as follows: ATF4-Luc assay (ATF4 luciferase reporter, tunicamycin-treated HEK293T cells). In kind it is cell-based, human. To be noted: Homo sapiens, HEK-293T; HEK293T cells carrying the ATF4 luciferase reporter, 1 μg/mL tunicamycin, 7 hours.
With `O=C(COc1ccc(Cl)c(F)c1)NC12CCC(NC(=O)Cc3ccc(OC(F)(F)F)cc3)(CC1)C(O)C2` (stereo not drawn) [Compound 326, 2-(4-chloro-3-fluorophenoxy)-N-(3-hydroxy-4-{2-[4-(trifluoromethoxy)phenyl]acetamido}bicyclo[2.2.2]octan-1-yl)acetamide], the concentration giving a half-maximal response (EC50) was in the range of 50 to 250 nM.
Consider `O=C(COc1ccc(Cl)c(F)c1)NC12CCC(NC(=O)Cc3cccc(OC(F)(F)F)c3)(CC1)C(O)C2` (stereo not drawn) [Compound 327, 2-(4-chloro-3-fluorophenoxy)-N-(3-hydroxy-4-{2-[3-(trifluoromethoxy)phenyl]acetamido}bicyclo[2.2.2]octan-1-yl)acetamide], for which the 50% effective concentration (EC50) was above 2000 nM.
Consider `O=C(COc1ccc(Cl)c(F)c1)NC12CCC(NC(=O)Cc3ccncc3)(CC1)C(O)C2` (stereo not drawn) [Compound 328, 2-(4-chloro-3-fluorophenoxy)-N-{3-hydroxy-4-[2-(pyridin-4-yl)acetamido]bicyclo[2.2.2]octan-1-yl}acetamide], for which the half-maximal effective concentration (EC50) is above 2000 nM.
In the case of `O=C(COc1ccc(F)c(F)c1)NC12CCC(NC(=O)COc3ccc(Cl)c(F)c3)(CC1)C(O)C2` (stereo not drawn) [Compound 329, 2-(4-chloro-3-fluorophenoxy)-N-{4-[2-(3,4-difluorophenoxy)acetamido]-2-hydroxybicyclo[2.2.2]octan-1-yl}acetamide], the EC50 is below 10 nM.
For the compound `O=C(COc1ccc(F)cc1)NC12CCC(NC(=O)COc3ccc(Cl)c(F)c3)(CC1)C(O)C2` (stereo not drawn) [Compound 330, 2-(4-chloro-3-fluorophenoxy)-N-{4-[2-(4-fluorophenoxy)acetamido]-2-hydroxybicyclo[2.2.2]octan-1-yl}acetamide], the half-maximal effective concentration (EC50) was below 10 nM.
In the case of `O=C(COc1ccc(Cl)c(F)c1)NC12CCC(NCCOc3ccc(F)cc3)(CC1)C(O)C2` (stereo not drawn) [Compound 331, 2-(4-chloro-3-fluorophenoxy)-N-(4-{[2-(4-fluorophenoxy)ethyl]amino}-3-hydroxybicyclo[2.2.2]octan-1-yl)acetamide] it was below 10 nM; in that of `O=C(COc1ccc(S(F)(F)(F)(F)F)nc1)NC12CC(NC(=O)COc3ccc(Cl)c(F)c3)(C1)C2` [Compound 332, 2-(4-chloro-3-fluorophenoxy)-N-[3-(2-{[6-(pentafluoro-X 6-sulfanyl)pyridin-3-yl]oxy}acetamido)bicyclo[1.1.1]pentan-1-yl]acetamide], 10 to 50 nM; in that of `O=C(COc1ccc(Cl)c(F)c1)NC12CCC(NC(=O)COc3ccnn(CC(F)(F)F)c3=O)(CC1)C(O)C2` (stereo not drawn) [Compound 333, 2-(4-chloro-3-fluorophenoxy)-N-[3-hydroxy-4-(2-{[3-oxo-2-(2,2,2-trifluoroethyl)-2,3-dihydropyridazin-4-yl]oxy}acetamido)bicyclo[2.2.2]octan-1-yl]acetamide], 250 to 500 nM.
In the case of `O=C(COc1ccc(Cl)c(F)c1)NC12CCC(NC(=O)COc3cnn(CC(F)(F)F)c(=O)c3)(CC1)C(O)C2` (stereo not drawn) [Compound 334, 2-(4-chloro-3-fluorophenoxy)-N-[3-hydroxy-4-(2-{[6-oxo-1-(2,2,2-trifluoroethyl)-1,6-dihydropyridazin-4-yl]oxy}acetamido)bicyclo[2.2.2]octan-1-yl]acetamide], the half-maximal effective concentration (EC50) lay within 500 to 2000 nM.
As to `O=C(COc1ccc(Cl)c(F)c1)NC12CCC(NCCOc3ccc(Cl)c(Cl)c3)(CC1)C(O)C2` (stereo not drawn) [Compound 335, 2-(4-chloro-3-fluorophenoxy)-N-(4-{[2-(3,4-dichlorophenoxy)ethyl]amino}-3-hydroxybicyclo[2.2.2]octan-1-yl)acetamide], the EC50 was below 10 nM.
Regarding `O=C(COc1ccc(Cl)c(F)c1)NC12CCC(NCCOc3ccc(Cl)cc3)(CC1)C(O)C2` (stereo not drawn) [Compound 336, 2-(4-chloro-3-fluorophenoxy)-N-(4-{[2-(4-chlorophenoxy)ethyl]amino}-3-hydroxybicyclo[2.2.2]octan-1-yl)acetamide], the EC50 was below 10 nM.
In the case of `CC1(O)CC2(NC(=O)COc3ccc(Cl)c(F)c3)CCC1(NC(=O)COc1ccc(C(F)(F)F)nc1)CC2` (stereo not drawn) [Compound 338, 2-(4-chloro-3-fluorophenoxy)-N-[3-hydroxy-3-methyl-4-(2-{[6-(trifluoromethyl)pyridin-3-yl]oxy}acetamido)bicyclo[2.2.2]octan-1-yl]acetamide], the EC50 fell in the range of 10 to 50 nM.
On to `CC1(O)CC2(NC(=O)COc3ccc(Cl)c(F)c3)CCC1(NC(=O)COc1ccc(Cl)c(F)c1)CC2` (stereo not drawn) [Compound 339, N,N′-(2-hydroxy-2-methylbicyclo[2.2.2]octane-1,4-diyl)bis[2-(4-chloro-3-fluorophenoxy)acetamide]], for which the 50% effective concentration (EC50) was below 10 nM.
For the compound `O=C(Cc1ccc(OC(F)(F)F)cc1)NC12CCC(NC(=O)COc3ccc(Cl)c(F)c3)(CC1)C(O)C2` (stereo not drawn) [Compound 340, 2-(4-chloro-3-fluorophenoxy)-N-(2-hydroxy-4-{2-[4-(trifluoromethoxy)phenyl]acetamido}bicyclo[2.2.2]octan-1-yl)acetamide], the EC50 lay within 50 to 250 nM.
Under `O=C(COc1ccc(Cl)c(F)c1)NC12CC(NC(=O)Cc3ccc(C(F)(F)F)cc3)(C1)C2` [Compound 341, 2-(4-chloro-3-fluorophenoxy)-N-(3-{2-[4-(trifluoromethyl)phenyl]acetamido}bicyclo[1.1.1]pentan-1-yl)acetamide] stands 50 to 250 nM; under `O=C(COc1ccc(Cl)c(F)c1)NC12CC(NC(=O)Cc3ccc(C(F)(F)F)nc3)(C1)C2` [Compound 342, 2-(4-chloro-3-fluorophenoxy)-N-(3-{2-[6-(trifluoromethyl)pyridin-3-yl]acetamido}bicyclo[1.1.1]pentan-1-yl)acetamide], 250 to 500 nM; under `N#Cc1ccc(CNC23CCC(NC(=O)COc4ccc(Cl)c(F)c4)(CC2)CC3O)cc1` (stereo not drawn) [Compound 343, 2-(4-chloro-3-fluorophenoxy)-N-(4-{[(4-cyanophenyl)methyl]amino}-3-hydroxybicyclo[2.2.2]octan-1-yl)acetamide], 50 to 250 nM.
In the case of `CS(=O)(=O)OC1CC2(NC(=O)COc3ccc(Cl)c(F)c3)CCC1(NC(=O)COc1ccc(Cl)c(F)c1)CC2` (stereo not drawn) [Compound 344, 1,4-bis[2-(4-chloro-3-fluorophenoxy)acetamido]bicyclo[2.2.2]octan-2-yl methanesulfonate], the EC50 is below 10 nM.
Regarding `O=C(COc1ccc(Cl)c(F)c1)NC12CCC(NC(=O)COc3ccc(F)cc3)(CC1)C(O)C2` (stereo not drawn) [Compound 345, 2-(4-chloro-3-fluorophenoxy)-N-{4-[2-(4-fluorophenoxy)acetamido]-3-hydroxybicyclo[2.2.2]octan-1-yl}acetamide], the EC50 is below 10 nM.
As for `O=C(/C=C/c1ccc(C(F)(F)F)cc1)NC12CC(NC(=O)COc3ccc(Cl)c(F)c3)(C1)C2` [Compound 346, (2E)-N-{3-[2-(4-chloro-3-fluorophenoxy)acetamido]bicyclo[1.1.1]pentan-1-yl}-3-[4-(trifluoromethyl)phenyl]prop-2-enamide], the EC50 lay within 50 to 250 nM.
Take `COc1ccc(/C=C/C(=O)NC23CC(NC(=O)COc4ccc(Cl)c(F)c4)(C2)C3)cc1` [Compound 347, (2E)-N-{3-[2-(4-chloro-3-fluorophenoxy)acetamido]bicyclo[1.1.1]pentan-1-yl}-3-(4-methoxyphenyl)prop-2-enamide]: the EC50 was 250 to 500 nM.
For the compound `O=C(/C=C/c1ccc(Cl)c(Cl)c1)NC12CC(NC(=O)COc3ccc(Cl)c(F)c3)(C1)C2` [Compound 348, (2E)-N-{3-[2-(4-chloro-3-fluorophenoxy)acetamido]bicyclo[1.1.1]pentan-1-yl}-3-(3,4-dichlorophenyl)prop-2-enamide], the concentration giving a half-maximal response (EC50) fell in the range of 10 to 50 nM.
Take `O=C(/C=C/c1ccccn1)NC12CC(NC(=O)COc3ccc(Cl)c(F)c3)(C1)C2` [Compound 349, (2E)-N-{3-[2-(4-chloro-3-fluorophenoxy)acetamido]bicyclo[1.1.1]pentan-1-yl}-3-(pyridin-2-yl)prop-2-enamide]: the EC50 fell in the range of 500 to 2000 nM.
With `O=C(/C=C/c1cccc(Cl)c1)NC12CC(NC(=O)COc3ccc(Cl)c(F)c3)(C1)C2` [Compound 350, (2E)-N-{3-[2-(4-chloro-3-fluorophenoxy)acetamido]bicyclo[1.1.1]pentan-1-yl}-3-(3-chlorophenyl)prop-2-enamide], the EC50 was 50 to 250 nM.
In the case of `O=C(/C=C/c1ccc(C(F)(F)F)nc1)NC12CC(NC(=O)COc3ccc(Cl)c(F)c3)(C1)C2` [Compound 351, (2E)-N-{3-[2-(4-chloro-3-fluorophenoxy)acetamido]bicyclo[1.1.1]pentan-1-yl}-3-[6-(trifluoromethyl)pyridin-3-yl]prop-2-enamide], the EC50 was in the range of 250 to 500 nM.
On to `O=C(/C=C/c1cccnc1)NC12CC(NC(=O)COc3ccc(Cl)c(F)c3)(C1)C2` [Compound 352, (2E)-N-{3-[2-(4-chloro-3-fluorophenoxy)acetamido]bicyclo[1.1.1]pentan-1-yl}-3-(pyridin-3-yl)prop-2-enamide], for which the EC50 is 500 to 2000 nM.
In the case of `O=C(COc1cncc(C(F)(F)F)c1)NC12CCC(NC(=O)COc3ccc(Cl)c(F)c3)(C1)C2` [Compound 355, 2-(4-chloro-3-fluorophenoxy)-N-[4-(2-{[5-(trifluoromethyl)pyridin-3-yl]oxy}acetamido)bicyclo[2.1.1]hexan-1-yl]acetamide], the EC50 is 50 to 250 nM.
In the case of `O=C(Cc1ccc(C(F)(F)F)cn1)NC12CCC(NC(=O)COc3ccc(Cl)c(F)c3)(CC1)C(O)C2` (stereo not drawn) [Compound 356, 2-(4-chloro-3-fluorophenoxy)-N-(2-hydroxy-4-{2-[5-(trifluoromethyl)pyridin-2-yl]acetamido}bicyclo[2.2.2]octan-1-yl)acetamide], the EC50 was in the range of 10 to 50 nM.
`NC1CC2(NC(=O)COc3ccc(Cl)c(F)c3)CCC1(NC(=O)COc1ccc(Cl)c(F)c1)CC2` (stereo not drawn) [Compound 357, N,N′-(2-aminobicyclo[2.2.2]octane-1,4-diyl)bis[2-(4-chloro-3-fluorophenoxy)acetamide]]: the EC50 was below 10 nM.
As to `CC(=O)NC1CC2(NC(=O)COc3ccc(Cl)c(F)c3)CCC1(NC(=O)COc1ccc(Cl)c(F)c1)CC2` (stereo not drawn) [Compound 358, N,N′-(2-acetamidobicyclo[2.2.2]octane-1,4-diyl)bis[2-(4-chloro-3-fluorophenoxy)acetamide]], the EC50 was below 10 nM.
